# From patent US20250179061A1 (SIRONAX LTD., priority 2022, published 2025)
# pIC50: −log10 of the molar value.
# System: HT-29 cells
# Assay: HT-29 necroptosis cell viability assay (TNF-α/SMAC mimetic/zVAD-FMK, CellTiter-Glo)
# Assay type: cell-based
# Conditions: Homo sapiens, HT-29, HT-29 necroptosis cell viability, IC50 class symbols; read-out: Activity
# Method in brief: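 HT-29 cells (~5,000/well, overnight) in FBS-free McCoy's 5A with TNF-α 10 ng/ml, SMAC mimetic 6 μM and zVAD-FMK 10 μM plus 10-point 1:3 compound titration, 20 h at 37°C. ATP measured by CellTiter-Glo luminescence; IC50 as geometric mean of duplicates.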
row,SMILES,pIC50
1,"N#CC1CN(c2cc(Oc3ccc(-n4ncn(Cc5c(F)cccc5F)c4=O)cc3)ccn2)C1 [Example 338, 1-(4-(4-(4-(2,6-difluorobenzyl)-5-oxo-4,5-dihydro-1H-1,2,4-triazol-1-yl)phenoxy)pyridin-2-yl)azetidine-3-carbonitrile]",6.00 to 7.00
2,"O=c1n(Cc2c(F)cccc2F)cnn1-c1ccc(Oc2ccnc(N3CC4(CCOCC4)C3)c2)cc1 [Example 339, 2-(4-((2-(7-oxa-2-azaspiro[3.5]nonan-2-yl)pyridin-4-yl)oxy)phenyl)-4-(2,6-difluorobenzyl)-2,4-dihydro-3H-1,2,4-triazol-3-one]",> 7.00
3,"O=c1n(Cc2c(F)cccc2F)cnn1-c1ccc(Oc2ccnc(N3CCC4(CCOCC4)C3)c2)cc1 [Example 340, 2-(4-((2-(8-oxa-2-azaspiro[4.5]decan-2-yl)pyridin-4-yl)oxy)phenyl)-4-(2,6-difluorobenzyl)-2,4-dihydro-3H-1,2,4-triazol-3-one]",> 7.00
4,"O=c1n(Cc2c(F)cccc2F)cnn1-c1ccc(Oc2ccnc(NCC3COC3)c2)cc1 [Example 341, 4-(2,6-difluorobenzyl)-2-(4-((2-((oxetan-3-ylmethyl)amino)pyridin-4-yl)oxy)phenyl)-2,4-dihydro-3H-1,2,4-triazol-3-one]",5.00 to 6.00
5,"O=c1n(Cc2c(F)cccc2F)cnn1-c1ccc(Oc2ccnc(NCC3CCC3)c2)cc1 [Example 342, 2-(4-((2-((cyclobutylmethyl)amino)pyridin-4-yl)oxy)phenyl)-4-(2,6-difluorobenzyl)-2,4-dihydro-3H-1,2,4-triazol-3-one]",6.00 to 7.00
6,"O=c1n(Cc2c(F)cccc2F)cnn1-c1ccc(Oc2ccnc(NC3COC3)c2)cc1 [Example 343, 4-(2,6-difluorobenzyl)-2-(4-((2-(oxetan-3-ylamino)pyridin-4-yl)oxy)phenyl)-2,4-dihydro-3H-1,2,4-triazol-3-one]",5.00 to 6.00
7,"O=c1n(Cc2c(F)cccc2F)cnn1-c1ccc(Oc2ccnc(NC3CCC3)c2)cc1 [Example 344, 2-(4-((2-(cyclobutylamino)pyridin-4-yl)oxy)phenyl)-4-(2,6-difluorobenzyl)-2,4-dihydro-3H-1,2,4-triazol-3-one]",6.00 to 7.00
8,"CC(C)Nc1cc(Oc2ccc(-n3ncn(Cc4c(F)cccc4F)c3=O)cc2)ccn1 [Example 345, 4-(2,6-difluorobenzyl)-2-(4-((2-(isopropylamino)pyridin-4-yl)oxy)phenyl)-2,4-dihydro-3H-1,2,4-triazol-3-one]",6.00 to 7.00
9,"CCNc1cc(Oc2ccc(-n3ncn(Cc4c(F)cccc4F)c3=O)cc2)ccn1 [Example 346, 4-(2,6-difluorobenzyl)-2-(4-((2-(ethylamino)pyridin-4-yl)oxy)phenyl)-2,4-dihydro-3H-1,2,4-triazol-3-one]",6.00 to 7.00
10,"O=c1n(Cc2c(F)cccc2F)cnn1-c1ccc(Oc2ccnc(OCC3CC3)c2)cc1 [Example 347, 2-(4-((2-(cyclopropylmethoxy)pyridin-4-yl)oxy)phenyl)-4-(2,6-difluorobenzyl)-2,4-dihydro-3H-1,2,4-triazol-3-one]",> 7.00
11,"C[C@@H](Nc1cc(Oc2ccc(-n3ncn(Cc4c(F)cccc4F)c3=O)cc2)ccn1)C1CCC1 [Example 348, (R)-2-(4-((2-((1-cyclobutylethyl)amino)pyridin-4-yl)oxy)phenyl)-4-(2,6-difluorobenzyl)-2,4-dihydro-3H-1,2,4-triazol-3-one]",6.00 to 7.00
12,"C[C@H](Nc1cc(Oc2ccc(-n3ncn(Cc4c(F)cccc4F)c3=O)cc2)ccn1)C1CCC1 [Example 349, (S)-2-(4-((2-((1-cyclobutylethyl)amino)pyridin-4-yl)oxy)phenyl)-4-(2,6-difluorobenzyl)-2,4-dihydro-3H-1,2,4-triazol-3-one]",6.00 to 7.00
13,"O=c1n(Cc2c(F)cccc2F)cnn1-c1ccc(S(=O)(=O)c2ccnc(N3CCC3)c2)cc1 [Example 350, 2-(4-((2-(azetidin-1-yl)pyridin-4-yl)sulfonyl)phenyl)-4-(2,6-difluorobenzyl)-2,4-dihydro-3H-1,2,4-triazol-3-one]",> 7.00
14,"N#CC1CC(Nc2cc(Oc3ccc(-n4ncn(Cc5c(F)cccc5F)c4=O)cc3)ccn2)C1 (stereo not drawn) [Example 351, 3-((4-(4-(4-(2,6-difluorobenzyl)-5-oxo-4,5-dihydro-1H-1,2,4-triazol-1-yl)phenoxy)pyridin-2-yl)amino)cyclobutane-1-carbonitrile]",6.00 to 7.00
15,"CN(c1cc(Oc2ccc(-n3ncn(Cc4c(F)cccc4F)c3=O)cc2)ccn1)C1CCC1 [Example 352, 2-(4-((2-(cyclobutyl(methyl)amino)pyridin-4-yl)oxy)phenyl)-4-(2,6-difluorobenzyl)-2,4-dihydro-3H-1,2,4-triazol-3-one]",6.00 to 7.00
16,"CCN(C)c1cc(Oc2ccc(-n3ncn(Cc4c(F)cccc4F)c3=O)cc2)ccn1 [Example 353, 4-(2,6-difluorobenzyl)-2-(4-((2-(ethyl(methyl)amino)pyridin-4-yl)oxy)phenyl)-2,4-dihydro-3H-1,2,4-triazol-3-one]",6.00 to 7.00
17,"NC12CC(Nc3cc(Oc4ccc(-n5ncn(Cc6c(F)cccc6F)c5=O)cc4)ccn3)(C1)C2 [Example 354, 2-(4-((2-((3-aminobicyclo[1.1.1]pentan-1-yl)amino)pyridin-4-yl)oxy)phenyl)-4-(2,6-difluorobenzyl)-2,4-dihydro-3H-1,2,4-triazol-3-one]",6.00 to 7.00
18,"CCOC1CN(c2nccc(Oc3ccc(-n4ncn(Cc5c(F)cccc5F)c4=O)cc3)c2F)C1 [Example 355, 4-(2,6-difluorobenzyl)-2-(4-((2-(3-ethoxyazetidin-1-yl)-3-fluoropyridin-4-yl)oxy)phenyl)-2,4-dihydro-3H-1,2,4-triazol-3-one]",> 7.00
19,"CC1(C#N)CCN(c2nccc(Oc3ccc(-n4ncn(Cc5c(F)cccc5F)c4=O)cc3)c2F)C1 (stereo not drawn) [Example 356, 1-(4-(4-(4-(2,6-difluorobenzyl)-5-oxo-4,5-dihydro-1H-1,2,4-triazol-1-yl)phenoxy)-3-fluoropyridin-2-yl)-3-methylpyrrolidine-3-carbonitrile]",> 7.00
20,"CC1C(C#N)CN1c1nccc(Oc2ccc(-n3ncn(Cc4c(F)cccc4F)c3=O)cc2)c1F (stereo not drawn) [Example 357, 1-(4-(4-(4-(2,6-difluorobenzyl)-5-oxo-4,5-dihydro-1H-1,2,4-triazol-1-yl)phenoxy)-3-fluoropyridin-2-yl)-2-methylazetidine-3-carbonitrile]",> 7.00
21,"COC1(C#N)CN(c2nccc(Oc3ccc(-n4ncn(Cc5c(F)cccc5F)c4=O)cc3)c2F)C1 [Example 358, 1-(4-(4-(4-(2,6-difluorobenzyl)-5-oxo-4,5-dihydro-1H-1,2,4-triazol-1-yl)phenoxy)-3-fluoropyridin-2-yl)-3-methoxyazetidine-3-carbonitrile]",> 7.00
22,"COC1(C#N)CN(c2ccnc(Cl)c2Oc2ccc(-n3ncn(Cc4c(F)cccc4F)c3=O)cc2)C1 [Example 359, 1-(2-chloro-3-(4-(4-(2,6-difluorobenzyl)-5-oxo-4,5-dihydro-1H-1,2,4-triazol-1-yl)phenoxy)pyridin-4-yl)-3-methoxyazetidine-3-carbonitrile]",6.00 to 7.00
23,"O=c1n(Cc2c(F)cccc2F)cnn1-c1ccc(Oc2ccnc(NC(C3CC3)C(F)(F)F)c2F)cc1 (stereo not drawn) [Example 360, 2-(4-((2-((1-cyclopropyl-2,2,2-trifluoroethyl)amino)-3-fluoropyridin-4-yl)oxy)phenyl)-4-(2,6-difluorobenzyl)-2,4-dihydro-3H-1,2,4-triazol-3-one]",5.00 to 6.00
24,"N#CC12CC(Nc3nccc(Oc4ccc(-n5ncn(Cc6c(F)cccc6F)c5=O)cc4)c3F)(C1)C2 [Example 361, 3-((4-(4-(4-(2,6-difluorobenzyl)-5-oxo-4,5-dihydro-1H-1,2,4-triazol-1-yl)phenoxy)-3-fluoropyridin-2-yl)amino)bicyclo[1.1.1]pentane-1-carbonitrile]",6.00 to 7.00
25,"O=c1n(Cc2c(F)cccc2F)cnn1-c1ccc(Oc2ccnc(NC3(C(F)(F)F)CC3)c2F)cc1 [Example 362, 4-(2,6-difluorobenzyl)-2-(4-((3-fluoro-2-((1-(trifluoromethyl)cyclopropyl)amino)pyridin-4-yl)oxy)phenyl)-2,4-dihydro-3H-1,2,4-triazol-3-one]",5.00 to 6.00
26,"CCOC1CN(c2nccc(Oc3ccc(-n4ncn(Cc5c(F)cccc5F)c4=O)cc3F)c2F)C1 [Example 363, 4-(2,6-difluorobenzyl)-2-(4-((2-(3-ethoxyazetidin-1-yl)-3-fluoropyridin-4-yl)oxy)-3-fluorophenyl)-2,4-dihydro-3H-1,2,4-triazol-3-one]",> 7.00
27,"CCOC1CN(c2cc(Oc3ccc(-n4ncn(Cc5c(F)cccc5F)c4=O)cc3F)c(F)cn2)C1 [Example 364, 4-(2,6-difluorobenzyl)-2-(4-((2-(3-ethoxyazetidin-1-yl)-5-fluoropyridin-4-yl)oxy)-3-fluorophenyl)-2,4-dihydro-3H-1,2,4-triazol-3-one]",> 7.00
28,"CCOC1CN(c2cc(Oc3ccc(-n4ncn(Cc5c(F)cccc5F)c4=O)cc3F)c(Cl)cn2)C1 [Example 365, 2-(4-((5-chloro-2-(3-ethoxyazetidin-1-yl)pyridin-4-yl)oxy)-3-fluorophenyl)-4-(2,6-difluorobenzyl)-2,4-dihydro-3H-1,2,4-triazol-3-one]",> 7.00
29,"COC1(C#N)CN(c2cc(Oc3ccc(-n4ncn(Cc5c(F)cccc5F)c4=O)cc3)ccn2)C1 [Example 366, 1-(4-(4-(4-(2,6-difluorobenzyl)-5-oxo-4,5-dihydro-1H-1,2,4-triazol-1-yl)phenoxy)pyridin-2-yl)-3-methoxyazetidine-3-carbonitrile]",> 7.00
30,"COC1(C#N)CN(c2cc(Oc3ccc(-n4ncn(Cc5c(F)cccc5F)c4=O)cc3F)ccn2)C1 [Example 367, 1-(4-(4-(4-(2,6-difluorobenzyl)-5-oxo-4,5-dihydro-1H-1,2,4-triazol-1-yl)-2-fluorophenoxy)pyridin-2-yl)-3-methoxyazetidine-3-carbonitrile]",> 7.00
